{"source": "patent US5002949A", "about": "“5-substituted-6-aminopyrimidine derivatives” (American Home Products Corporation, priority 1990, dated 1991)", "key": {"[1]": {"test_system": "platelet aggregation induced by collagen", "experiment": "inhibition of platelet aggregation induced by collagen", "type": "cell-based", "from_the_text": "(§1) As representative compounds, 5-bromo-6-[[(5-bromo-3-pyridinylmethyl]amino]-2-methyl-4(1H)-pyrimidinone,HBr (Compound A) and 5-cyano-2-methyl-6-[[3-pyridinyl)methyl)]amino]-4(1H)-pyrimidinone hydrochloride (Compound B) inhibited platelet aggregation as follows."}, "[2]": {"test_system": "platelet aggregation induced by adenosine diphosphate", "experiment": "inhibition of platelet aggregation induced by adenosine diphosphate (ADP)", "type": "cell-based", "settings": "ADP (second phase)", "from_the_text": "as §1"}, "white thrombus formation": {"test_system": "white thrombus formation", "experiment": "inhibition of white thrombus formation in the rabbit arteriovenous model", "type": "in vivo"}, "[3]": {"test_system": "platelet aggregation induced by U46619 (endoperoxide)", "experiment": "inhibition of platelet aggregation induced by U46619 (endoperoxide)", "type": "cell-based", "from_the_text": "as §1"}, "[4]": {"test_system": "platelet aggregation induced by arachidonic acid", "experiment": "inhibition of platelet aggregation induced by arachidonic acid", "type": "cell-based", "from_the_text": "as §1"}, "[5]": {"test_system": "platelet aggregation induced by epinephrine", "experiment": "inhibition of platelet aggregation induced by epinephrine", "type": "cell-based", "settings": "Epinephrine (second phase)", "from_the_text": "as §1"}}, "note": "Structures can show the parent of a compound that is named as a salt."}
{"smiles": "Cc1nc(NCc2cccnc2)c(C#N)c(=O)[nH]1", "note": "[Compound B, 5-cyano-2-methyl-6-[[3-pyridinyl)methyl)]amino]-4(1H)-pyrimidinone hydrochloride]", "values": [{"measurement": "IC50", "setting": "[1]", "value": 13.3, "unit": "µM"}, {"measurement": "IC50", "setting": "[2]", "value": 6.3, "unit": "µM"}, {"measurement": "Percent Inhibition (thrombus weight)", "setting": "white thrombus formation; 0.5 mg/kg i.v.", "value": 41.7, "unit": "%"}, {"measurement": "Percent Inhibition (thrombus weight)", "setting": "white thrombus formation; 1.0 mg/kg i.v.", "value": 56.8, "unit": "%"}, {"measurement": "Percent Inhibition (thrombus weight)", "setting": "white thrombus formation; 5.0 mg/kg i.v.", "value": 76.7, "unit": "%"}, {"measurement": "IC50", "setting": "[3]", "value": 6.6, "unit": "µM"}, {"measurement": "IC50", "setting": "[4]", "value": 2.8, "unit": "µM"}, {"measurement": "IC50", "setting": "[5]", "value": 10.8, "unit": "µM"}]}
{"smiles": "Cc1nc(NCc2cncc(Br)c2)c(Br)c(=O)[nH]1", "note": "[Compound A]", "values": [{"measurement": "IC50", "setting": "[1]", "value": 0.54, "unit": "µM"}, {"measurement": "IC50", "setting": "[2]", "value": 0.2, "unit": "µM"}, {"measurement": "Percent Inhibition (thrombus weight)", "setting": "white thrombus formation; 0.1 mg/kg i.v.", "value": 28.4, "unit": "%"}, {"measurement": "Percent Inhibition (thrombus weight)", "setting": "white thrombus formation; 0.25 mg/kg i.v.", "value": 47.1, "unit": "%"}, {"measurement": "IC50", "setting": "[3]", "value": 0.21, "unit": "µM"}, {"measurement": "IC50", "setting": "[4]", "value": 0.18, "unit": "µM"}, {"measurement": "IC50", "setting": "[5]", "value": 0.43, "unit": "µM"}]}
